SMILES strings stand for the structures.

For one assay, the target named is T1, XIAP (Homo sapiens, UniProt P98170).
T1 construct: GST
T1 sequence (P98170 248-358 limits assumed, species assumed): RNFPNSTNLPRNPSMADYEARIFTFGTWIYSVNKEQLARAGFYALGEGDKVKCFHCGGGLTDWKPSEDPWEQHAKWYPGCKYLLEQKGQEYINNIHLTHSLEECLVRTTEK
The assay is described as follows: Disruption of the Smac peptide-(XIAP)BIR3 protein-protein interaction (Tables 2 and 3). It is filed as binding. The conditions noted are these: Series A compounds, Table 2; read-out: XIAP IC50. The method, then:
IC50 values for Series A compounds for XIAP. An assay capable of measuring disruption of the Smac peptide-(XIAP)BIR3 protein-protein interaction is established in the art as described in Example 2. In this assay IAP Inhibitor compounds compete with an immobilized Smac peptide for occupancy of the BIR3 binding pocket of XIAP. The rationale for this strategy results from the mutually exclusive nature of either Caspase 9 or Smac binding to the BIR3 pocket.
Assays are performed and IC50 values are calculated as follows: […]
IC50 values are calculated by logarithmic regression analysis of the percentage inhibition of each compound at 4 concentrations (usually 3- or 10-fold dilution series starting at 10 μM). In each experiment, the actual inhibition by reference compound is used for normalization of IC50 values to the basis of an average value of the reference inhibitor: Normalized IC50=measured IC50 average ref. IC50/measured ref. IC50
Activity determinations of compounds herein using the testing method described herein and as are well known in the art, are used with the following test compounds of formula (I). […] “Activity” as used herein is defined as having IC50 values for IAP target inhibition of less than 10 μM. Specifically, in the table:
IC50 values for Series B compounds are provided for XIAP. Assays are performed as described above using methods well known in the art.
For the molecule `CN[C@@H](C)C(=O)N[C@H](C(=O)N1CCN(Cc2ccccc2Cl)C[C@H]1C(=O)NC1CCCc2ccccc21)C(C)C` (stereo partly drawn) [Compound 45, (S)-4-(2-Chloro-benzyl)-1-[(S)-3-methyl-2-((S)-2-methylamino-propionylamino)-butyryl]-piperazine-2-carboxylic acid (1,2,3,4-tetrahydro-naphthalen-1-yl)-amide], the concentration for half-maximal inhibition (IC50) is under 10 µM.

For the molecule `CN[C@@H](C)C(=O)N[C@H](C(=O)N1CCN(CCc2ccccc2)C[C@H]1C(=O)NC1CCCc2ccccc21)C(C)C` (stereo partly drawn) [Compound 46, (S)-1-[(S)-3-Methyl-2-((S)-2-methylamino-propionylamino)-butyryl]-4-phenethyl-piperazine-2-carboxylic acid (1,2,3,4-tetrahydro-naphthalen-1-yl)-amide], the IC50 is under 10 µM.

`CN[C@@H](C)C(=O)N[C@H](C(=O)N1CCN(C(=O)N2CCCC2)C[C@H]1C(=O)NC1CCCc2ccccc21)C(C)C` (stereo partly drawn) [Compound 47, (S)-1-[(S)-3-Methyl-2-((S)-2-methylamino-propionylamino)-butyryl]-4-(pyrrolidine-1-carbonyl)-piperazine-2-carboxylic acid (1,2,3,4-tetrahydro-naphthalen-1-yl)-amide]: the IC50 was under 10 µM.

For the molecule `CN[C@@H](C)C(=O)N[C@H](C(=O)N1CCN(C(=O)NC(C)C)C[C@H]1C(=O)NC1CCCc2ccccc21)C(C)C` (stereo partly drawn) [Compound 48, (S)-4-[(S)-3-Methyl-2-((S)-2-methylamino-propionylamino)-butyryl]-piperazine-1,3-dicarboxylic acid 1-isopropylamide 3-[(1,2,3,4-tetrahydro-naphthalen-1-yl)-amide]], the IC50 is under 10 µM.

`CN[C@@H](C)C(=O)N[C@H](C(=O)N1CCN(Cc2ccccn2)C[C@H]1C(=O)NC1CCCc2ccccc21)C(C)C` (stereo partly drawn) [Compound 49, (S)-1-[(S)-3-Methyl-2-((S)-2-methylamino-propionylamino)-butyryl]-4-pyridin-2-ylmethyl-piperazine-2-carboxylic acid (1,2,3,4-tetrahydro-naphthalen-1-yl)-amide]: the IC50 is under 10 µM.

Turning to `CN[C@@H](C)C(=O)N[C@H](C(=O)N1CCN(C(=O)N(C)c2ccccc2)C[C@H]1C(=O)NC1CCCc2ccccc21)C(C)C` (stereo partly drawn) [Compound 50, (S)-4-[(S)-3-Methyl-2-((S)-2-methylamino-propionylamino)-butyryl]-piperazine-1,3-dicarboxylic acid 1-(methyl-phenyl-amide) 3-[(1,2,3,4-tetrahydro-naphthalen-1-yl)-amide]], the half-inhibitory concentration (IC50) is under 10 µM.

For `CN[C@@H](C)C(=O)N[C@H](C(=O)N1CCN(Cc2ccc(C)cc2)C[C@H]1C(=O)NC1CCCc2ccccc21)C(C)C` (stereo partly drawn) [Compound 51, (S)-4-(4-Methyl-benzyl)-1-[(S)-3-methyl-2-((S)-2-methylamino-propionylamino)-butyryl]-piperazine-2-carboxylic acid (1,2,3,4-tetrahydro-naphthalen-1-yl)-amide], the IC50 is under 10 µM.

On to `CN[C@@H](C)C(=O)N[C@H](C(=O)N1CCN(Cc2ccccc2)C[C@H]1C(=O)NC1CCCc2ccccc21)C(C)C` (stereo partly drawn) [Compound 52, (S)-4-Benzyl-1-[(S)-3-methyl-2-((S)-2-methylamino-propionylamino)-butyryl]-piperazine-2-carboxylic acid (1,2,3,4-tetrahydro-naphthalen-1-yl)-amide], for which the IC50 was under 10 µM.

Regarding `CN[C@@H](C)C(=O)N[C@H](C(=O)N1CCN(Cc2ccccc2)C[C@H]1C(=O)NC1CCCc2ccccc21)C(C)C` (stereo partly drawn) [Compound 53, (S)-4-Benzyl-1-[(S)-3-methyl-2-((S)-2-methylamino-propionylamino)-butyryl]-piperazine-2-carboxylic acid (1,2,3,4-tetrahydro-naphthalen-1-yl)-amide], the half-inhibitory concentration (IC50) is under 10 µM.

For `CN[C@@H](C)C(=O)N[C@H](C(=O)N1CCN(Cc2ccccc2)C[C@H]1C(=O)NC1CCCc2ccccc21)C(C)C` (stereo partly drawn) [Compound 54, (S)-4-Benzyl-1-[(S)-3-methyl-2-((S)-2-methylamino-propionylamino)-butyryl]-piperazine-2-carboxylic acid (1,2,3,4-tetrahydro-naphthalen-1-yl)-amide], the half-maximal inhibitory concentration (IC50) is under 10 µM.

Take `CN[C@@H](C)C(=O)N[C@H](C(=O)N1CCN(Cc2ccccc2)C[C@H]1C(=O)NC1CCCc2ccccc21)C1CCCCC1` (stereo partly drawn) [Compound 55, (S)-4-Benzyl-1-[(S)-2-cyclohexyl-2-((S)-2-methylamino-propionylamino)-acetyl]-piperazine-2-carboxylic acid (1,2,3,4-tetrahydro-naphthalen-1-yl)-amide]: the half-maximal inhibitory concentration (IC50) is under 10 µM.

In the case of `CN[C@@H](C)C(=O)N[C@H](C(=O)N1CCNC[C@H]1C(=O)NC1CCCc2ccccc21)C(C)C` (stereo partly drawn) [Compound 56, (S)-1-[(S)-3-Methyl-2-((S)-2-methylamino-propionylamino)-butyryl]-piperazine-2-carboxylic acid (1,2,3,4-tetrahydro-naphthalen-1-yl)-amide], the 50% inhibitory concentration (IC50) was under 10 µM.

`CC(C)[C@H](NC(=O)[C@H](C)N(C)C(=O)OC(C)(C)C)C(=O)N1CCN(Cc2ccccc2)C[C@H]1C(=O)N[C@@H]1CCCc2ccccc21` [Compound 57, [(S)-1-((S)-1-{(S)-4-Benzyl-2-[(R)-(1,2,3,4-tetrahydro-naphthalen-1-yl)carbamoyl]-piperazine-1-carbonyl}-2-methyl-propylcarbamoyl)-ethyl]-methyl-carbamic acid tert-butyl ester]: the IC50 is over 10 µM.

`C[C@@H](C(=O)N[C@H](C(=O)N1CCN(Cc2ccccc2)C[C@H]1C(=O)N[C@@H]1CCCc2ccccc21)C1CCCCC1)N(C)C(=O)OC(C)(C)C` [Compound 58, [(S)-1-((S)-2-{(S)-4-Benzyl-2-[(R)-(1,2,3,4-tetrahydro-naphthalen-1-yl)carbamoyl]-piperazin-1-yl}-1-cyclohexyl-2-oxo-ethylcarbamoyl)-ethyl]-methyl-carbamic acid tert-butyl ester]: the IC50 is over 10 µM.

On to `CN[C@@H](C)C(=O)N[C@H](C(=O)N1CCNC[C@H]1C(=O)NC1CCCc2ccccc21)C1CCCCC1` (stereo partly drawn) [Compound 59, (S)-1-[(S)-2-Cyclohexyl-2-((S)-2-methylamino-propionylamino)-acetyl]-piperazine-2-carboxylic acid (1,2,3,4-tetrahydro-naphthalen-1-yl)-amide], for which the concentration for half-maximal inhibition (IC50) is under 10 µM.

Still in this assay, the particulars now being: Series B compounds, Table 3; read-out: XIXP IC50.
Consider `CN[C@@H](C)C(=O)N[C@H](C(=O)N1CCN(Cc2ccccc2)C[C@H]1C(=O)NCCc1ccccc1)C(C)C` [Compound 61, (S)-4-Benzyl-1-[(S)-3-methyl-2-((S)-2-methylamino-propionylamino)-butyryl]-piperazine-2-carboxylic acid phenethyl-amide], for which the IC50 was under 10 µM.

In the case of `CN[C@@H](C)C(=O)N[C@H](C(=O)N1CCN(Cc2ccccc2)C[C@H]1C(=O)NC1CCc2ccccc21)C(C)C` (stereo partly drawn) [Compound 62, (S)-4-Benzyl-1-[(S)-3-methyl-2-((S)-2-methylamino-propionylamino)-butyryi]-piperazine-2-carboxylic acid indan-1-ylamide], the IC50 is under 10 µM.

`CN[C@@H](C)C(=O)N[C@H](C(=O)N1CCN(Cc2ccccc2)C[C@H]1C(=O)NCCc1cccc(F)c1)C(C)C` [Compound 63, (S)-4-Benzyl-1-[(S)-3-methyl-2-((S)-2-methylamino-propionylamino)-butyryl]-piperazine-2-carboxylic acid [2-(3-fluoro-phenyl)-ethyl]-amide]: the IC50 was under 10 µM.
